Test results from ChEMBL document CHEMBL3885881, “DrugMatrix”.

Species: Rattus norvegicus
Assay: DrugMatrix - Regimen: Daily Repeat
Format: toxicity, organism-based, Sprague-Dawley
Set-up: regimen Daily Repeat, gender Male, age 6-8 weeks
Conditions: in vivo, sc, route subcutaneous, […]; for ABSOLUTE BASOPHIL / ABSOLUTE EOSINOPHIL / ABSOLUTE LYMPHOCYTE / ABSOLUTE MONOCYTE / ABSOLUTE SEGMENTED NEUTROPHIL / BASOPHIL / EOSINOPHIL / ERYTHROCYTE COUNT / HEMATOCRIT / HEMOGLOBIN / LEUKOCYTE COUNT / LYMPHOCYTE / MEAN CORPUSCULAR HEMOGLOBIN / MEAN CORPUSCULAR HEMOGLOBIN CONCENTRATION / MEAN CORPUSCULAR VOLUME / MONOCYTE / NEUTROPHIL / NUCLEATED RED BLOOD CELLS / PLATELET COUNT: tissue Blood; for ALANINE AMINOTRANSFERASE / ALBUMIN / ALKALINE PHOSPHATASE / ASPARTATE AMINOTRANSFERASE / BLOOD UREA NITROGEN / CARBON DIOXIDE / CHLORIDE / CHOLESTEROL / CREATINE PHOSPHOKINASE / CREATININE / GLUCOSE / LACTATE DEHYDROGENASE / LIPASE / PHOSPHORUS / POTASSIUM / SODIUM / TOTAL BILIRUBIN / TOTAL PROTEIN / URIC ACID: tissue Plasma
[1] = 0 mg/kg, 72 h, dose level Control, time 3 day
[2] = 0 mg/kg, 120 h, dose level Control, time 5 day
[3] = 18 mg/kg, 72 h, dose level High, time 3 day

CN(C)c1ccc(C(=C2C=CC(=[N+](C)C)C=C2)c2ccc(N(C)C)cc2)cc1.[Cl-] [GENTIAN VIOLET]
ABSOLUTE BASOPHIL [1]: 0 CELLS/uL | ABSOLUTE EOSINOPHIL [1]: 92.33 CELLS/uL | ABSOLUTE LYMPHOCYTE [1]: 12247.5 CELLS/uL | ABSOLUTE MONOCYTE [1]: 389.67 CELLS/uL | ABSOLUTE SEGMENTED NEUTROPHIL [1]: 1320.5 CELLS/uL | BASOPHIL [1]: 0% | EOSINOPHIL [1]: 0.67% | ERYTHROCYTE COUNT [1]: 5.45 x10E6/uL | HEMATOCRIT [1]: 34.85% | HEMOGLOBIN [1]: 12.97 G/DL | LEUKOCYTE COUNT [1]: 14.05 x10E3/uL | LYMPHOCYTE [1]: 87.33% | MEAN CORPUSCULAR HEMOGLOBIN [1]: 23.78 pg | MEAN CORPUSCULAR HEMOGLOBIN CONCENTRATION [1]: 37.22 G/DL | MEAN CORPUSCULAR VOLUME [1]: 63.93 fL | MONOCYTE [1]: 2.67% | NEUTROPHIL [1]: 9.33% | NUCLEATED RED BLOOD CELLS [1]: 0 /100WBC | PLATELET COUNT [1]: 1174 x10E3/uL | ALANINE AMINOTRANSFERASE [1]: 48.83 u/L | ALBUMIN [1]: 4.23 G/DL | ALKALINE PHOSPHATASE [1]: 351.5 u/L | ASPARTATE AMINOTRANSFERASE [1]: 90 u/L | BLOOD UREA NITROGEN [1]: 15.33 mg/dL | CARBON DIOXIDE [1]: 23 mmol/L | CHLORIDE [1]: 103.5 MEQ/L | CHOLESTEROL [1]: 70.5 mg/dL | CREATINE PHOSPHOKINASE [1]: 651.83 u/L | CREATININE [1]: 0.22 mg/dL | GLUCOSE [1]: 180.67 mg/dL | LACTATE DEHYDROGENASE [1]: 165 u/L | LIPASE [1]: 9.33 u/L | PHOSPHORUS [1]: 12.03 mg/dL | POTASSIUM [1]: 6.17 MEQ/L | SODIUM [1]: 142.62 MEQ/L | TOTAL BILIRUBIN [1]: 0.2 mg/dL | TOTAL PROTEIN [1]: 5.73 G/DL | URIC ACID [1]: 1.77 mg/dL | ABSOLUTE BASOPHIL [2]: 0 CELLS/uL | ABSOLUTE EOSINOPHIL [2]: 0 CELLS/uL | ABSOLUTE LYMPHOCYTE [2]: 12736.67 CELLS/uL | ABSOLUTE MONOCYTE [2]: 253.5 CELLS/uL | ABSOLUTE SEGMENTED NEUTROPHIL [2]: 1193.17 CELLS/uL | BASOPHIL [2]: 0% | EOSINOPHIL [2]: 0% | ERYTHROCYTE COUNT [2]: 5.72 x10E6/uL | HEMATOCRIT [2]: 36.05% | HEMOGLOBIN [2]: 13.62 G/DL | LEUKOCYTE COUNT [2]: 14.18 x10E3/uL | LYMPHOCYTE [2]: 89.33% | MEAN CORPUSCULAR HEMOGLOBIN [2]: 23.83 pg | MEAN CORPUSCULAR HEMOGLOBIN CONCENTRATION [2]: 37.8 G/DL | MEAN CORPUSCULAR VOLUME [2]: 63.05 fL | MONOCYTE [2]: 1.83% | NEUTROPHIL [2]: 8.83% | NUCLEATED RED BLOOD CELLS [2]: 0 /100WBC | PLATELET COUNT [2]: 1322.17 x10E3/uL | ALANINE AMINOTRANSFERASE [2]: 48.83 u/L | ALBUMIN [2]: 4.27 G/DL | ALKALINE PHOSPHATASE [2]: 295.17 u/L | ASPARTATE AMINOTRANSFERASE [2]: 75.83 u/L | BLOOD UREA NITROGEN [2]: 15.5 mg/dL | CARBON DIOXIDE [2]: 30.5 mmol/L | CHLORIDE [2]: 102.33 MEQ/L | CHOLESTEROL [2]: 76.17 mg/dL | CREATINE PHOSPHOKINASE [2]: 205.5 u/L | CREATININE [2]: 0.2 mg/dL | GLUCOSE [2]: 149.67 mg/dL | LACTATE DEHYDROGENASE [2]: 124.5 u/L | LIPASE [2]: 10 u/L | PHOSPHORUS [2]: 10.93 mg/dL | POTASSIUM [2]: 6.59 MEQ/L | SODIUM [2]: 143.1 MEQ/L | TOTAL BILIRUBIN [2]: 0.2 mg/dL | TOTAL PROTEIN [2]: 6.05 G/DL | URIC ACID [2]: 1.45 mg/dL | ABSOLUTE BASOPHIL [3]: 0 CELLS/uL | ABSOLUTE EOSINOPHIL [3]: 0 CELLS/uL | ABSOLUTE LYMPHOCYTE [3]: 12052.33 CELLS/uL | ABSOLUTE MONOCYTE [3]: 236.33 CELLS/uL | ABSOLUTE SEGMENTED NEUTROPHIL [3]: 1544.67 CELLS/uL | BASOPHIL [3]: 0% | EOSINOPHIL [3]: 0% | ERYTHROCYTE COUNT [3]: 5.45 x10E6/uL | HEMATOCRIT [3]: 33.5% | HEMOGLOBIN [3]: 12.27 G/DL | LEUKOCYTE COUNT [3]: 13.83 x10E3/uL | LYMPHOCYTE [3]: 87% | MEAN CORPUSCULAR HEMOGLOBIN [3]: 22.5 pg | MEAN CORPUSCULAR HEMOGLOBIN CONCENTRATION [3]: 36.67 G/DL | MEAN CORPUSCULAR VOLUME [3]: 61.5 fL | MONOCYTE [3]: 1.67% | NEUTROPHIL [3]: 11.33% | NUCLEATED RED BLOOD CELLS [3]: 0 /100WBC | PLATELET COUNT [3]: 1084 x10E3/uL | ALANINE AMINOTRANSFERASE [3]: 34.67 u/L | ALBUMIN [3]: 2.67 G/DL | ALKALINE PHOSPHATASE [3]: 220 u/L | ASPARTATE AMINOTRANSFERASE [3]: 68.67 u/L | BLOOD UREA NITROGEN [3]: 12 mg/dL | CARBON DIOXIDE [3]: 19 mmol/L | CHLORIDE [3]: 103.5 MEQ/L | CHOLESTEROL [3]: 66.33 mg/dL | CREATINE PHOSPHOKINASE [3]: 157.33 u/L | CREATININE [3]: 0.17 mg/dL | GLUCOSE [3]: 122.33 mg/dL | LACTATE DEHYDROGENASE [3]: 148 u/L | LIPASE [3]: 7.33 u/L | PHOSPHORUS [3]: 8.5 mg/dL | POTASSIUM [3]: 6.06 MEQ/L | SODIUM [3]: 145.95 MEQ/L | TOTAL BILIRUBIN [3]: 0.13 mg/dL | TOTAL PROTEIN [3]: 4.7 G/DL | URIC ACID [3]: 1.1 mg/dL
